For assay [1], the target named is Intestinal-type alkaline phosphatase (Homo sapiens, UniProt P09923). As to the kind of experiment: Dose Response confirmation of uHTS hits from a small molecule inhibitors of human intestinal alkaline phosphatase via a luminescent assay. [Related pubchem assays (depositor defined):AID2544, AID2574]. The format is functional.
Assay [2] in a line: inhibitors of intracellular T. cruzi replication, confirmation, NIH3T3 host cells, beta-gal luminescence (AID 2044).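 Further: intracellular parasites grown in NIH/3T3 mouse fibroblasts as host cells; luminescent beta-galactosidase reporter signal from transgenic T. cruzi replicating inside host cells; inhibitors lower the luminescence signal.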 The format is functional, cell-based.
The subject of the next assay is INS1. The assay can be described thus: beta cell apoptosis inhibitors, cytokine rescue, dose response, luminescence, retest (AID 449756).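 Further: cell death triggered by IL-1 beta plus TNF-alpha plus IFN-gamma mixture; protective hits raise ATP signal compared with cytokine alone wells.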 It is filed as functional, cell-based. To be noted: Rattus norvegicus.
Assay [3] can be described thus: Cytotoxicity screening for potential Inhibitors of Bacterial Capsule Biogenesis. [Related pubchem assays (depositor defined):AID488970]. The format is functional.
Assay [4] deals with T1, Ubiquitin-conjugating enzyme E2 N (Homo sapiens, UniProt P61088).
T1 sequence (P61088 whole entry): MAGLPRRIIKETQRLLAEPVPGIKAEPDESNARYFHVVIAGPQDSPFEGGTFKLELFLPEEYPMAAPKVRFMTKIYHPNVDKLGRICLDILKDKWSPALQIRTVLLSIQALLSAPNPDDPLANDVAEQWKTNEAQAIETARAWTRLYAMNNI
The format is functional.

Assay [5] can be described thus: cytotoxicity toward NIH3T3 fibroblasts, dose response, counter-screen, cell-based, ATP luminescence, mouse fibroblasts (AID 2010).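 Further: cells exposed to compound for about 90 hours before reading.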 It is filed as functional. (In general: The purpose of a counterscreen is to sort out artefacts and off-target activity.)
Assay [6] addresses G2/mitotic-specific cyclin-B1 (Homo sapiens, UniProt P14635). As to the kind of experiment: G2/M cell cycle arrest in HeLa, late-stage follow-up, mechanism study for Wee1 degradation inhibitor project, FACS, panel member Cyclin B Degradation (AID 2088).
In the next assay the target is Wee1-like protein kinase (Homo sapiens, UniProt P30291). The assay can be described thus: G2/M cell cycle arrest in HeLa, late-stage follow-up, mechanism study for Wee1 degradation inhibitor project, FACS, panel member Wee1 Degradation (AID 2088).
Wee1-like protein kinase, sequence (P30291 whole entry): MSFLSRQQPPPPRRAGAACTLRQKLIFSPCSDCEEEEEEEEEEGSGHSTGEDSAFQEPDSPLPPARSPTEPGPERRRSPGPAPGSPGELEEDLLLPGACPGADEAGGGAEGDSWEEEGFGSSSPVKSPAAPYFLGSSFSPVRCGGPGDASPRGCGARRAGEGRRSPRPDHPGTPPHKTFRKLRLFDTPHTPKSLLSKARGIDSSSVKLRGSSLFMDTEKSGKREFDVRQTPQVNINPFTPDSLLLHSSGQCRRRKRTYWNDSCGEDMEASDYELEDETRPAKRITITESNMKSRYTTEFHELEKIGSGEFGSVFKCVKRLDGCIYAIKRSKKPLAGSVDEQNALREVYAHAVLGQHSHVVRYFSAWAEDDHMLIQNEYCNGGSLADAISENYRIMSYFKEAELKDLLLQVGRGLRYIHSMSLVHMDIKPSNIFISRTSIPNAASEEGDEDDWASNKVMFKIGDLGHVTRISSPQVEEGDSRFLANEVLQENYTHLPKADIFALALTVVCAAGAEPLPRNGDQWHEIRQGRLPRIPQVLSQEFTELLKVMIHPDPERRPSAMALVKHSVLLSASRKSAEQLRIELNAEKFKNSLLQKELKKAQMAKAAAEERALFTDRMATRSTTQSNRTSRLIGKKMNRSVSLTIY
A short description of assay [7]: blockers of SFLLRN-triggered platelet ATP secretion – cell-based, human platelets, luminescence, dry powder, dose response (AID 493100). The format is functional.
Assay [8] is described as follows: inhibitors of SNCA 5'UTR-driven reporter translation, confirmation, H4 neuroglioma cells, luminescence (AID 1988). The format is functional, cell-based.
Assay [9] can be described thus: cytotoxicity in HEK-293T cells, dose response, cytotoxicity control for TCR NF-kB inhibitor project, luminescence, T-cell screen hits (AID 489026).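 Further: cells exposed to compound about 14 hours before the viability readout.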 It is filed as functional, cell-based.
For assay [10], the system named is BJ. The assay can be described thus: cytotoxicity toward BJ-TERT-LT-ST fibroblasts, dose response, cell-based, RAS-independent, luminescence (AID 1935).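 Further: BJ fibroblasts immortalized with TERT plus LT and ST oncogenes.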 To be noted: Homo sapiens. The format is functional.
Assay [11] in a line: inhibitors of firefly luciferase expression or activity, dose response, H4 neuroglioma cells, luminescence (AID 1990). The format is functional, cell-based.
The nature of assay [12]: cytotoxicity toward DRD oncogenic fibroblasts, dose response, cell-based, non-viral oncogenic, luminescence (AID 1934). The format is functional. Particulars: Homo sapiens.
In assay [13] the test system is BJ. As to the kind of experiment: cytotoxicity toward BJ-TERT fibroblasts, dose response, cell-based, RAS-independent, luminescence (AID 1933). It is filed as functional. Particulars: Homo sapiens.
The next assay has as its system J774.A1. As to the kind of experiment: Confirmation of image-based Screening Assay for Inhibitors of Phagocytosis. [Related pubchem assays (depositor defined):AID1029, AID1643]. The format is functional, cell-based. Particulars: Mus musculus.
A short description of assay [14]: Luminescence Cell-Based Dose Response HTS to Identify Inhibitors of 5'UTR Stem-Loop Driven Prion Protein mRNA Translation in H4 Neuroglioblastoma Cells. [Related pubchem assays: 1827 (Project Summary), 1813 (Primary HTS)]. The format is functional.
In assay [15] the test system is BJ. The assay can be described thus: cells. The format is functional, cell-based. Particulars: Homo sapiens.
Assay [16] concerns the target NACHT, LRR and PYD domains-containing protein 1 (Homo sapiens, UniProt Q9C000). The assay can be described thus: NALP1 inhibitors in yeast, dose response, luminescent (AID 488860). It is filed as functional.
The subject of another assay is Saccharomyces cerevisiae. The assay can be described thus: NALP1 inhibitor project selectivity study, Caspase-1/ASC signal blockade IC50 in S. cerevisiae (AID 488863). It is filed as functional, organism-based.
In the next assay the target is D(3) dopamine receptor (Homo sapiens, UniProt P35462). As to the kind of experiment: Late-stage radioligand binding dose response assay to identify inhibitors of NADPH oxidase 1 (NOX1): PDSP screen Ki. [Related pubchem assays (depositor defined):AID1792, AID1796, AID1823, AID2532, AID2538, AID2539, AID2541, AID2545, AID2556, AID2664, AID2752, AID2773, AID434992, AID434993, AID434997, AID435002, AID435009, AID435013, AID463255 ….

The next assay addresses NADPH oxidase 1 (Homo sapiens, UniProt Q9Y5S8). The assay can be described thus: Luminescence-based cell-based dose response assay to identify inhibitors of NADPH oxidase 1 (NOX1). The format is functional.
The target in assay [17] is Sigma non-opioid intracellular receptor 1 (Homo sapiens, UniProt Q99720). The assay can be described thus: Late-stage radioligand binding dose response assay to identify inhibitors of NADPH oxidase 1 (NOX1): PDSP screen Ki. [Related pubchem assays (depositor defined):AID1792, AID1796, AID1823, AID2532, AID2538, AID2539, AID2541, AID2545, AID2556, AID2664, AID2752, AID2773, AID434992, AID434993, AID434997, AID435002, AID435009, AID435013, AID463255 ….

For assay [18], the target named is Alpha-2A adrenergic receptor (Homo sapiens, UniProt P08913). The description is as above.
Assay [19] has as its target Alpha-2C adrenergic receptor (Homo sapiens, UniProt P18825). The assay is described as above.
In another assay the target is Oxytocin receptor (Homo sapiens, UniProt P30559). The assay is described as above.
Oxytocin receptor, sequence (P30559 whole entry): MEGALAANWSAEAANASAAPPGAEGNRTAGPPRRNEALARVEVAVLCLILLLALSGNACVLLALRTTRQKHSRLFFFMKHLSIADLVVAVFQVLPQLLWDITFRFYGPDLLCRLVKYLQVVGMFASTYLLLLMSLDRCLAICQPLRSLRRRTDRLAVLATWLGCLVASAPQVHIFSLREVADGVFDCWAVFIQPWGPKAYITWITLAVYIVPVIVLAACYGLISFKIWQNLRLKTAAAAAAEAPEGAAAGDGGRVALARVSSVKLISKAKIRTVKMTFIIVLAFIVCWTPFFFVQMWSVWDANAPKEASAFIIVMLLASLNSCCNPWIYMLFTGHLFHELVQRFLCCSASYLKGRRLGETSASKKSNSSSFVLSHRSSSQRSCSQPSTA
Assay [20] deals with Glutamate receptor ionotropic, kainate 5 (Rattus norvegicus, UniProt Q63273). The assay is described as above.
Glutamate receptor ionotropic, kainate 5, sequence (Q63273 whole entry): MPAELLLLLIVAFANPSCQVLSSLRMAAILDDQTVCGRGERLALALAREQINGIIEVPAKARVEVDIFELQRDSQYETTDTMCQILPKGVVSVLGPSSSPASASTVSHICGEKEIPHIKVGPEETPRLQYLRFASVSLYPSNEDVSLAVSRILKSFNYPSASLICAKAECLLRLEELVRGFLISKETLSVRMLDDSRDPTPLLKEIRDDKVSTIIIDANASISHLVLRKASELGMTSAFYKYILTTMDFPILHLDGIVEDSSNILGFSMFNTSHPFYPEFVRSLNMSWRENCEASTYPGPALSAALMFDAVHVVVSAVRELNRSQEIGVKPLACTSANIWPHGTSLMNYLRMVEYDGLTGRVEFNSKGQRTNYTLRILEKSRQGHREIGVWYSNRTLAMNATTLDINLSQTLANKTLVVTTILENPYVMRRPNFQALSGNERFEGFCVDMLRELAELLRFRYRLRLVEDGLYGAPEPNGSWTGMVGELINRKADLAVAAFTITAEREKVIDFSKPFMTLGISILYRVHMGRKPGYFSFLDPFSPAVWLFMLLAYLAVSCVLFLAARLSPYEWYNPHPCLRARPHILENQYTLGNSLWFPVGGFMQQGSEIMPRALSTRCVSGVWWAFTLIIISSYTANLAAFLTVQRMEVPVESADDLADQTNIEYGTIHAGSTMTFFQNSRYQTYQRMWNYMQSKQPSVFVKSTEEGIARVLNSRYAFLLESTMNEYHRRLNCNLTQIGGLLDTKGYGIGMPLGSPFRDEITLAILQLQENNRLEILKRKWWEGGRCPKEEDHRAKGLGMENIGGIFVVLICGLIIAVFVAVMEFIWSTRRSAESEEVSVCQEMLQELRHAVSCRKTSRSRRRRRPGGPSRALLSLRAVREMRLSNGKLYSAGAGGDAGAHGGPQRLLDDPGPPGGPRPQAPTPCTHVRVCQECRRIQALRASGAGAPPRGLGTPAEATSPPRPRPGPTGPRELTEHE
Assay [21] has as its target Muscarinic acetylcholine receptor M3 (Homo sapiens, UniProt P20309). The assay is described as above.
For assay [22], the target named is Sodium-dependent serotonin transporter (Homo sapiens, UniProt P31645). The assay is described as above.
The target in assay [23] is 5-hydroxytryptamine receptor 4 (Homo sapiens, UniProt Q13639). The description is as above.
5-hydroxytryptamine receptor 4, sequence (Q13639 whole entry): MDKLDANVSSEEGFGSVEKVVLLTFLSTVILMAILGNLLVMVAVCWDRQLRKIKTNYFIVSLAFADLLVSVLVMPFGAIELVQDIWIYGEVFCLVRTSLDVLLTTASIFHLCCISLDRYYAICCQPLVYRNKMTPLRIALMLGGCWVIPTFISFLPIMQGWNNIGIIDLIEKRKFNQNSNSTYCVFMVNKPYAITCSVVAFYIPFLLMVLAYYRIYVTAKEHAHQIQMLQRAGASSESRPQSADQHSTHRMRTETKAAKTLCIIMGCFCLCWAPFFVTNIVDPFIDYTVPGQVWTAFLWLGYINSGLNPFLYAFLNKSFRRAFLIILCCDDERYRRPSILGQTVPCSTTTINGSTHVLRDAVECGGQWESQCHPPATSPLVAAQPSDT
The nature of assay [24]: HEp-2 cell cytotoxicity, dose response, cytotoxicity control for RSV inhibitor project, HTS (AID 2410). It is filed as functional. Particulars: human respiratory syncytial virus.
In assay [25] the target is 5-hydroxytryptamine receptor 2C (Homo sapiens, UniProt P28335). As to the kind of experiment: Late-stage radioligand binding dose response assay to identify inhibitors of NADPH oxidase 1 (NOX1): PDSP screen Ki. [Related pubchem assays (depositor defined):AID1792, AID1796, AID1823, AID2532, AID2538, AID2539, AID2541, AID2545, AID2556, AID2664, AID2752, AID2773, AID434992, AID434993, AID434997, AID435002, AID435009, AID435013, AID463255 ….

Assay [26] concerns the target 5-hydroxytryptamine receptor 2B (Homo sapiens, UniProt P41595). Described as above.
Assay [27] has as its target Sodium-dependent noradrenaline transporter (Homo sapiens, UniProt P23975). The assay is described as above.
For assay [28], the target named is Muscarinic acetylcholine receptor M4 (Homo sapiens, UniProt P08173). The description is as above.
For assay [29], the target named is Alpha-2B adrenergic receptor (Homo sapiens, UniProt P18089). The assay is described as above.
Alpha-2B adrenergic receptor, sequence (P18089 whole entry): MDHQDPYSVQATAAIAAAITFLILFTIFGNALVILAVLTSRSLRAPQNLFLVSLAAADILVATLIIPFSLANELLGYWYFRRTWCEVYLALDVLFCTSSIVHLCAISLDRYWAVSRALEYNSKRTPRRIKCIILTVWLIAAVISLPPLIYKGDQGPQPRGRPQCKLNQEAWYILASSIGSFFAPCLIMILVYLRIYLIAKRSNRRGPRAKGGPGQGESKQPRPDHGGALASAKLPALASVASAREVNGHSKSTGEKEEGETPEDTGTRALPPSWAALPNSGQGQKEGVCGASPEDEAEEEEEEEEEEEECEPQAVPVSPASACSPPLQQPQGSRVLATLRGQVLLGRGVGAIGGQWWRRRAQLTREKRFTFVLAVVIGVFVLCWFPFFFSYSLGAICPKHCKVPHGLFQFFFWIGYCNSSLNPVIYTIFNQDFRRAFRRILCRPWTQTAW
Assay [30] concerns the target Muscarinic acetylcholine receptor M5 (Homo sapiens, UniProt P08912). The description is as above.
In assay [31] the target is Cystic fibrosis transmembrane conductance regulator/Golgi-associated PDZ and coiled-coil motif-containing protein (Homo sapiens, UniProt P13569+Q9HD26). As to the kind of experiment: CAL PDZ peptide-binding inhibitors, dose response, biochemical, fluorescence polarization, Cerulean-tagged CAL PDZ, cherry-picks (AID 504773).
A further assay concerns the target Bcl-2-like protein 10 (Homo sapiens, UniProt Q9HD36). As to the kind of experiment: displacers of TR3 peptide from Bcl-B, primary screen, selectivity assay for Bfl-1 inhibitor project, biochemical, fluorescence polarization, FITC-TR3 peptide (AID 748). (In general: Polarisation of emitted light reports the rotation of a fluorescent probe.);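 further: fluorescence polarization from a fluorescein-labelled TR3 peptide binding purified Bcl-B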
The target of assay [32] is DNA dC->dU-editing enzyme APOBEC-3A (Homo sapiens, UniProt P31941). As to the kind of experiment: Dose Response confirmation of small molecule APOBEC3A DNA Deaminase Inhibitors via a fluorescence-based single-stranded DNA deaminase assay. [Related pubchem assays (depositor defined):AID493011, AID493024]. It is filed as functional.
Assay [33] addresses DNA dC->dU-editing enzyme APOBEC-3G (Homo sapiens, UniProt Q9HC16). It is filed as functional.
Assay [34] addresses Voltage-gated N-type calcium channel alpha-1B subunit/Amyloid beta A4 precursor protein-binding family A member 1 (Homo sapiens, UniProt Q00975+Q02410). The assay can be described thus: disruptors of Mint-PDZ/N-type channel peptide interaction – biochemical, HTRF, SAR follow-up (AID 2489). The format is functional. (In general: TR-FRET usually uses a lanthanide donor and a delayed reading to cut background.)

Assay [35] deals with T2, Tyrosine-protein phosphatase non-receptor type 7 (Homo sapiens, UniProt P35236).
T2 sequence (P35236 whole entry): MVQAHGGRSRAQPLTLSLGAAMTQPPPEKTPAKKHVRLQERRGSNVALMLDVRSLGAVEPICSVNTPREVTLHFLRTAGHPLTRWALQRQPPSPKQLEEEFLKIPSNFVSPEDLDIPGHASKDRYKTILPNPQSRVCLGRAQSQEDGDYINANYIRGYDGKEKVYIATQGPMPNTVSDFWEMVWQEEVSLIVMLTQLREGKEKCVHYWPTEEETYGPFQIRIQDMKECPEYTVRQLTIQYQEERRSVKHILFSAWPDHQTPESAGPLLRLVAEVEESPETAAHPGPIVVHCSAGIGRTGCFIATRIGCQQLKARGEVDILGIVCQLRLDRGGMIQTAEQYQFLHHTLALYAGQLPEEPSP
The assay can be described thus: redox-dependent HePTP inhibition, mechanism study, biochemical, fluorescence (AID 2068). It is filed as functional.

Molecules are shown by their SMILES. Active and inactive are the calls of the source. Unless noted, the calls are words filed in the database; no cut-off is given here.

Intestinal-type alkaline phosphatase, sequence (P09923 whole entry): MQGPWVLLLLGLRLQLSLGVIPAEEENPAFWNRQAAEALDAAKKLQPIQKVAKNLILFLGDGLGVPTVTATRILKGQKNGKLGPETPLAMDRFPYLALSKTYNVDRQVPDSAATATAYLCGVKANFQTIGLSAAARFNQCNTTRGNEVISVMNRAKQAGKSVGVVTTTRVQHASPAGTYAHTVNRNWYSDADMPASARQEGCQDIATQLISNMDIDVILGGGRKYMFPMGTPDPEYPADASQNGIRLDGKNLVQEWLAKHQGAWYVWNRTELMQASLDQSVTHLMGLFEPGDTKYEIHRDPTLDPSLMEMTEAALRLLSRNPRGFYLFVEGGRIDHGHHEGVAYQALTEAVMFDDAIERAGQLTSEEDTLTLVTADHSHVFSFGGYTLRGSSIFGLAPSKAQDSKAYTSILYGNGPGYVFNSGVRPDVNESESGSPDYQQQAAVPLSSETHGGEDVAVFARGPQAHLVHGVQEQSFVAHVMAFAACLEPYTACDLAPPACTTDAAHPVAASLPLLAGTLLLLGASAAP
NADPH oxidase 1, sequence (Q9Y5S8 whole entry): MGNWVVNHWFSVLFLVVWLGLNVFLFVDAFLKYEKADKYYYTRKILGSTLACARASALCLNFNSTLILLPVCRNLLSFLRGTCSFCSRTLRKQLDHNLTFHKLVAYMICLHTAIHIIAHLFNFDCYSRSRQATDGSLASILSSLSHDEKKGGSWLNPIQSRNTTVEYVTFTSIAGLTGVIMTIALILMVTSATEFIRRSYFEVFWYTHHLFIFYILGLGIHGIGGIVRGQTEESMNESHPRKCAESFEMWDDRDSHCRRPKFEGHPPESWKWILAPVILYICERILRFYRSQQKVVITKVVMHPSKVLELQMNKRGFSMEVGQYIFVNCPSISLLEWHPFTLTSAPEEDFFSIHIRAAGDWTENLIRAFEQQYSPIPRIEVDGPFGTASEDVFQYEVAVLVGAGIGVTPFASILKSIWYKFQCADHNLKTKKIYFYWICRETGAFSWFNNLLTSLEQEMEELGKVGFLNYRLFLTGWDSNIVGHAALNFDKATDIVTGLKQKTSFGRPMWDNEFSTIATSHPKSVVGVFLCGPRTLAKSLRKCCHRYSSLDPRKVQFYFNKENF
Alpha-2C adrenergic receptor, sequence (P18825 whole entry): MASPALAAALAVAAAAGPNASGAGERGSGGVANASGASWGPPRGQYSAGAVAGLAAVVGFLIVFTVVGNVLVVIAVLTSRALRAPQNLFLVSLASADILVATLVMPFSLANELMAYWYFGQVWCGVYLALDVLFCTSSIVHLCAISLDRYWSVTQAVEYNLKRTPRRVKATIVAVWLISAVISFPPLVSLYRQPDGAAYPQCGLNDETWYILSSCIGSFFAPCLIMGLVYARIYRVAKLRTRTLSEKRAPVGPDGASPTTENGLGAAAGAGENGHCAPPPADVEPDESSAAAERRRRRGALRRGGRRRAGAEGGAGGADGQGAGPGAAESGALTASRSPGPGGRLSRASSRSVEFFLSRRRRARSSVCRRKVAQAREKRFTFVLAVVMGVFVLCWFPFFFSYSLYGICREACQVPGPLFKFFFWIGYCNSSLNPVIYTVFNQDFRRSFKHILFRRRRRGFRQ
Muscarinic acetylcholine receptor M5, sequence (P08912 whole entry): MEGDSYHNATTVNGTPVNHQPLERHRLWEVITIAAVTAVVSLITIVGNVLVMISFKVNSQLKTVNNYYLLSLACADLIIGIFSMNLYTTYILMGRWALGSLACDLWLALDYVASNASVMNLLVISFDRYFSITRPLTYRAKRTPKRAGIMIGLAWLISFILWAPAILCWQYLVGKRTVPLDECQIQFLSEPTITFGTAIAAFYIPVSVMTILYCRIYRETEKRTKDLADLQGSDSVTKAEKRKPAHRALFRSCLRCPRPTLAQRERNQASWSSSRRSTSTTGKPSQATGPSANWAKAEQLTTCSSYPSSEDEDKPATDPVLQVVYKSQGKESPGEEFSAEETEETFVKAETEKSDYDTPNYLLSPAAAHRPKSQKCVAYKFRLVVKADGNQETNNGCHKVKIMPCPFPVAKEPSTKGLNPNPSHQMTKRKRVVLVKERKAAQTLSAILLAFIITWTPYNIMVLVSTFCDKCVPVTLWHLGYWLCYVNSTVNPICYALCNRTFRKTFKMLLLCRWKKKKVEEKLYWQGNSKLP

Turning to `Cc1[nH]n(-c2nc(-c3ccccc3F)cc(=O)[nH]2)c(=O)c1CCO`, the 50% inhibitory concentration (IC50) (as a rule, the concentration at which inhibition is half-maximal) in [1] was 1.07 µM (active).
Regarding `N=C(N)N/N=C/c1ccc(OCc2ccccc2)cc1`, the 50% effective concentration (EC50) (usually the concentration giving half of the maximal effect) is 0.92 µM (active) in assay [2] and > 60 µM (not active) in assay [5]. The AC50 – broadly, the concentration at which the activity in the assay is half-maximal – with INS1 was 6.57 µM (active). Besides, the CC50 – broadly, the concentration giving 50% cytotoxicity – in assay [3] was 10.4 µM (active). In addition, the IC50 in assay [4] was > 20 µM (inactive).
In the case of `Cc1cc(=O)[nH]c(-n2nc(C)cc2NC(=O)c2cccs2)n1`, the EC50 (in assay [6]; on Wee1-like protein kinase) was > 49.7 µM (inactive) each time.
As for `CCCC(=O)Nc1cccc(NC(=O)c2ccccc2C)c1`, in assay [7], the AC50 was 5.5 µM (active).
`CCOC(=O)Nc1nc(-c2ccccc2)c(C(=O)c2ccccc2)s1`: the half-maximal effective concentration (EC50) in [8] was 0.198 µM (active); with BJ [10], 4.12 µM (inconclusive); in assay [11] it was 1.41 µM (active); in assay [12] it was 12.3 µM (inconclusive); in the assay with BJ [13], 7.17 µM (inconclusive); in [14], 1.38 µM (active). Also, the EC50 in the assay with BJ [15] is 17.1 µM (inconclusive). Moreover, the IC50 is 68.3 µM (inactive) in assay [9] and 0.215 µM (active) in the assay on J774.A1.
As to `CCCCC(=O)Nc1ccc(C(=O)NNC(=S)NC(=O)c2ccco2)cc1`, the half-inhibitory concentration (IC50) was 25.7 µM (active) in assay [16] and 18.8 µM (active) with Saccharomyces cerevisiae.
Regarding `CN1c2ccccc2Sc2cc(N)ccc21`, the inhibition constant Ki (usually the dissociation constant of the complex between target and ligand, obtained from inhibition or displacement) was 9.06 µM (active) at D(3) dopamine receptor; > 10 µM (inactive) in assay [17]; 6.92 µM (active) in assay [18]; 5.76 µM (active) in assay [19]; > 10 µM (inactive) at Oxytocin receptor; > 10 µM (inactive) in assay [20]. For the same molecule, the Ki is 10 µM (inactive) in assay [21]; 10 µM (active) in assay [22]; > 10 µM (inactive) in assay [23]; 2.96 µM (active) in assay [25]; 0.556 µM (active) in assay [26]; 3.94 µM (active) in [27]. In addition, the Ki in assay [28] is > 10 µM (inactive); in assay [29], 2.72 µM (active); in assay [30], > 10 µM (inactive). Besides, the half-inhibitory concentration (IC50) at NADPH oxidase 1 was 0.044 µM (active). Besides, the EC50 is 1.27 µM (active) in [2] and > 60 µM (not active) in assay [5]. The cytotoxic concentration (CC50) in assay [24] is 27.1 µM (active).
Regarding `O=C1OC(c2ccccc2)(c2ccccc2)c2ccccc21`, the AC50 in [31] is 17.3 µM (active).
With `CCC1=[N+](C)CCn2c(C)ccc21`, the IC50 on Bcl-2-like protein 10 was > 100 µM (inactive); in [32], 1.51 µM (active); in assay [33], 1.32 µM (active).
With `O=C(Nc1ccc2nc(-c3ccco3)c(-c3ccco3)nc2c1)N1CCOCC1`, the IC50 in [34] is 22.3 µM (active); in assay [35] it was 0.693 µM (active).

The record behind these values is ChEMBL document CHEMBL1201862, “PubChem BioAssay data set” (2004).
